Reference: PMC6272711, “5-Methoxyquinoline Derivatives as a New Class of EZH2 Inhibitors” (Molecules, 2015)

Columns and labels:
EZH2 = EZH2 (Homo sapiens, UniProt Q15910); experiment: AlphaLISA assay for EZH2; assay type: biochemical; conditions: enzymatic assay; means of at least three measurements
HCT15 = experiment: MTT cell growth inhibition, HCT15; assay type: cell-based, human; conditions: Homo sapiens, HCT-15, 96 h, read-out: IC50 HCT15, MTT, treatment 96 h; means of at least three measurements
MDA-MB-231 = experiment: MTT cell growth inhibition, MDA-MB-231; assay type: cell-based; conditions: Homo sapiens, MDA-MB-231, 96 h, read-out: IC50 MDA-MB-231

Chain of EZH2 (Q15910 whole entry): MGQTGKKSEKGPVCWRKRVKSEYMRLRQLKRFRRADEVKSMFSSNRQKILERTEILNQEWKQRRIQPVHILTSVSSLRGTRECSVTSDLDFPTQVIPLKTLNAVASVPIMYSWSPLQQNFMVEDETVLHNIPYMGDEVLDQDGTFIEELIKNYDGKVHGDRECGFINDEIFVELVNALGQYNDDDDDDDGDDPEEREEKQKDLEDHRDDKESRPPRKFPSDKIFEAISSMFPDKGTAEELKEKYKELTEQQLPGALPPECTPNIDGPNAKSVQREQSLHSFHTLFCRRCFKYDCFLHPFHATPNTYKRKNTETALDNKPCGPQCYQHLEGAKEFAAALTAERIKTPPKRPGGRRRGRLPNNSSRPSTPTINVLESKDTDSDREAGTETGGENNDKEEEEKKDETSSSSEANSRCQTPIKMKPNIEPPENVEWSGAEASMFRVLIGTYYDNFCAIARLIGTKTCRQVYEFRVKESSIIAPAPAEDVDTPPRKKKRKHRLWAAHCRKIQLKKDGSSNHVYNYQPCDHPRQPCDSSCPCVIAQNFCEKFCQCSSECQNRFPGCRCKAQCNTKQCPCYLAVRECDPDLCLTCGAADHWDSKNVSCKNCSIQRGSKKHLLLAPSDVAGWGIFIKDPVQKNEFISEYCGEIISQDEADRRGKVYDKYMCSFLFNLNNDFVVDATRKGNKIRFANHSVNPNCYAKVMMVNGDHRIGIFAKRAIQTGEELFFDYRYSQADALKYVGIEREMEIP
Chain of EZH2 (O75530 whole entry partner): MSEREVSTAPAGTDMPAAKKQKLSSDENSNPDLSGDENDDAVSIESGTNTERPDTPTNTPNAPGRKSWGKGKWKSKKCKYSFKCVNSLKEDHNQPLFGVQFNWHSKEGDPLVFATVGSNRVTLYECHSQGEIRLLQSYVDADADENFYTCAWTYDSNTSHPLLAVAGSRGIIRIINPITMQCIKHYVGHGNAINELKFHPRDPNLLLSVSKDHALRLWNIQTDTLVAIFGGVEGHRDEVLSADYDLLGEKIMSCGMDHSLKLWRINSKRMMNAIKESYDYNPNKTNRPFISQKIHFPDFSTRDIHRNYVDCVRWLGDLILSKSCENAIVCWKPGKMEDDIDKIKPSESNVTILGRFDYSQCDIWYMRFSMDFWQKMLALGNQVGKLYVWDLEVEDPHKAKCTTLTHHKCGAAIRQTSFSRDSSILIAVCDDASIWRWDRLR
Chain of EZH2 (Q15022 whole entry partner): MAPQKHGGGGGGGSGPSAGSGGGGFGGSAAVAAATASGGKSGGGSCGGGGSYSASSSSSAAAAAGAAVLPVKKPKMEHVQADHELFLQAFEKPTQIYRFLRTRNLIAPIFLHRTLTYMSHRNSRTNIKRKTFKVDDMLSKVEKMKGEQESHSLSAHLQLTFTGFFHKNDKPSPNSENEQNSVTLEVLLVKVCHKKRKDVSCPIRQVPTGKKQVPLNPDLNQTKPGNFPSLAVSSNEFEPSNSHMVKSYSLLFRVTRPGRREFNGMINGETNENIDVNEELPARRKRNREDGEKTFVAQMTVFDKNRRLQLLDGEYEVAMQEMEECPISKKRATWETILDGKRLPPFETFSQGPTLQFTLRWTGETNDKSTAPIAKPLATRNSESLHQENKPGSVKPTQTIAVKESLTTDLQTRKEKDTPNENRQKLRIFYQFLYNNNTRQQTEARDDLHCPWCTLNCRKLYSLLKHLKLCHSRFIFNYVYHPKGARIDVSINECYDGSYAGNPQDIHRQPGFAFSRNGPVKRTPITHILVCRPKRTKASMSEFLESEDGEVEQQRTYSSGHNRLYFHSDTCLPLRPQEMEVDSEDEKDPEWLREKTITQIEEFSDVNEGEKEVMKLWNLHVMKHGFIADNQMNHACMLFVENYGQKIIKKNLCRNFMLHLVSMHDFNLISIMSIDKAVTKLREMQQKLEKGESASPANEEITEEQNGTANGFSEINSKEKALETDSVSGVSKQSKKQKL

SMILES | IC50 (EZH2) [µM] | IC50 (HCT15) [µM] | IC50 (MDA-MB-231) [µM]
COc1cccc2nc(Nc3ncccn3)cc(NC3CCN(Cc4ccccc4)CC3)c12 [Compound 5d, N4-(1-Benzylpiperidin-4-yl)-5-methoxy-N2-(pyrimidin-2-yl)quinoline-2,4-diamine] | 17.5 ± 0.96 | > 20 | > 20
COc1cccc2nc(Cl)cc(NC3CCN(Cc4ccccc4)CC3)c12 [Compound 1, N-(1-benzylpiperidin-4-yl)-2-chloro-5-methoxyquinolin-4-amine] | – | – | > 20
COc1cccc(Nc2cc(N3CCCN(C)CC3)nc3cccc(OC)c23)c1 [Compound 5s, 5-Methoxy-N-(3-methoxyphenyl)-2-(4-methyl-1,4-diazepan-1-yl)quinolin-4-amine] | 16.8 ± 0.94 | 19.6 ± 0.56 | 16.9 ± 1.06
COc1cccc2nc(Nc3ccc([N+](=O)[O-])cc3)cc(NC3CCN(Cc4ccccc4)CC3)c12 [Compound 5e, N4-(1-Benzylpiperidin-4-yl)-5-methoxy-N2-(4-nitrophenyl)quinoline-2,4-diamine] | 29.4 ± 1.01 | 17.8 ± 1.27 | 14.9 ± 2.2
COc1cccc2nc(N3CCCN(C)CC3)cc(Nc3ccc(N(C)C)cc3)c12 [Compound 5p, N1-(5-Methoxy-2-(4-methyl-1,4-diazepan-1-yl)quinolin-4-yl)-N4,N4-dimethylbenzene-1,4-diamine] | 27.6 ± 0.97 | 17.4 ± 1.54 | 16.2 ± 1.67
COc1cccc2nc(N3CCN(C)CC3)cc(NC3CCN(Cc4ccccc4)CC3)c12 [Compound 5a, N-(1-Benzylpiperidin-4-yl)-5-methoxy-2-(4-methylpiperazin-1-yl)quinolin-4-amine] | 16.4 ± 1.24 | 12.3 ± 0.95 | 11.9 ± 1.83
COc1cccc2nc(N3CCCN(C)CC3)cc(NCCC(C)C)c12 [Compound 5h, N-Isopentyl-5-methoxy-2-(4-methyl-1,4-diazepan-1-yl)quinolin-4-amine] | 11.5 ± 1.21 | 5.46 ± 0.85 | 4.31 ± 0.57
COc1cc(OC)c2nc(N3CCCN(C)CC3)cc(NC3CCN(C)CC3)c2c1 [Compound 9h, 6,8-Dimethoxy-2-(4-methyl-1,4-diazepan-1-yl)-N-(1-methylpiperidin-4-yl)quinolin-4-amine] | 14.9 ± 1.71 | 19.8 ± 1.27 | 13.2 ± 1.64
COc1cccc2nc(N3CCOCC3)cc(NC3CCN(Cc4ccccc4)CC3)c12 [Compound 5b, N-(1-Benzylpiperidin-4-yl)-5-methoxy-2-morpholinoquinolin-4-amine] | 23 ± 2.06 | 15.6 ± 1.27 | 14.2 ± 1.97
COc1cccc2nc(N3CCCN(C)CC3)cc(NCCN3CCN(C)CC3)c12 [Compound 5j, 5-Methoxy-2-(4-methyl-1,4-diazepan-1-yl)-N-(2-(4-methylpiperazin-1-yl)ethyl)quinolin-4-amine] | 4.2 ± 0.2 | 18.6 ± 2.2 | 12.4 ± 0.95
COc1cccc2nc(N3CCCN(C)CC3)cc(Nc3ccc(C(C)C)cc3)c12 [Compound 5n, N-(4-Isopropylphenyl)-5-methoxy-2-(4-methyl-1,4-diazepan-1-yl)quinolin-4-amine] | 26.4 ± 2.04 | 14.6 ± 1.27 | 13.2 ± 2.53
COc1cccc2nc(N3CCCN(C)CC3)cc(NC3CCN(Cc4ccccc4)CC3)c12 [Compound 5g, N-(1-Benzylpiperidin-4-yl)-5-methoxy-2-(4-methyl-1,4-diazepan-1-yl)quinolin-4-amine] | 6.6 ± 0.49 | 3.78 ± 0.07 | 4.56 ± 0.24
COc1ccc2nc(N3CCCN(C)CC3)cc(NC3CCN(C)CC3)c2c1OC [Compound 9d, 5,6-Dimethoxy-2-(4-methyl-1,4-diazepan-1-yl)-N-(1-methylpiperidin-4-yl)quinolin-4-amine] | 5.6 ± 0.45 | 8.6 ± 2.2 | 12.4 ± 0.95
COc1ccccc1Nc1cc(N2CCCN(C)CC2)nc2cccc(OC)c12 [Compound 5o, 5-Methoxy-N-(2-methoxyphenyl)-2-(4-methyl-1,4-diazepan-1-yl)quinolin-4-amine] | 17.5 ± 1.13 | > 20 | > 20
COc1cccc2nc(N3CCCCC3)cc(NC3CCN(Cc4ccccc4)CC3)c12 [Compound 5c, N-(1-Benzylpiperidin-4-yl)-5-methoxy-2-(piperidin-1-yl)quinolin-4-amine] | 32 ± 2.78 | 7.8 ± 0.46 | 5.6 ± 0.14
COc1cccc2nc(N3CCCN(C)CC3)cc(Nc3cncnc3)c12 [Compound 5t, 5-Methoxy-2-(4-methyl-1,4-diazepan-1-yl)-N-(pyrimidin-5-yl)quinolin-4-amine] | 35.3 ± 1.61 | > 20 | > 20
COc1ccc(Nc2cc(N3CCCN(C)CC3)nc3cccc(OC)c23)c(C)c1 [Compound 5q, 5-Methoxy-N-(4-methoxy-2-methylphenyl)-2-(4-methyl-1,4-diazepan-1-yl)quinolin-4-amine] | 34.8 ± 1.54 | 16.9 ± 0.36 | 14.5 ± 1.23
COc1cccc2nc(N3CCCN(C)CC3)cc(Nc3cc(C(F)(F)F)cc(C(F)(F)F)c3)c12 [Compound 5v, N-(3,5-Bis(trifluoromethyl)phenyl)-5-methoxy-2-(4-methyl-1,4-diazepan-1-yl)quinolin-4-amine] | 34.1 ± 2.22 | 10.2 ± 1.24 | > 20
COc1ccc2c(NC3CCN(C)CC3)cc(N3CCCN(C)CC3)nc2c1OC [Compound 9i, 7,8-Dimethoxy-2-(4-methyl-1,4-diazepan-1-yl)-N-(1-methylpiperidin-4-yl)quinolin-4-amine] | 13.7 ± 1.32 | > 20 | > 20
COc1cc(OC)c2c(NC3CCN(C)CC3)cc(N3CCCN(C)CC3)nc2c1 [Compound 9e, 5,7-Dimethoxy-2-(4-methyl-1,4-diazepan-1-yl)-N-(1-methylpiperidin-4-yl)quinolin-4-amine] | 6.7 ± 0.36 | 10.6 ± 0.83 | 12.5 ± 0.62
COc1cccc2nc(Nc3cc(C(F)(F)F)cc(C(F)(F)F)c3)cc(NC3CCN(Cc4ccccc4)CC3)c12 [Compound 5f, N4-(1-Benzylpiperidin-4-yl)-N2-(3,5-bis(trifluoromethyl)phenyl)-5-methoxyquinoline-2,4-diamine] | 21.6 ± 2.35 | 10.2 ± 1.24 | > 20
COc1cccc2nc(N3CCCN(C)CC3)cc(Nc3ccc(C)cc3)c12 [Compound 5r, 5-Methoxy-2-(4-methyl-1,4-diazepan-1-yl)-N-(p-tolyl)quinolin-4-amine] | 39.7 ± 1.26 | 12.9 ± 0.89 | > 20
COc1ccc(OC)c2c(NC3CCN(C)CC3)cc(N3CCCN(C)CC3)nc12 [Compound 9f, 5,8-Dimethoxy-2-(4-methyl-1,4-diazepan-1-yl)-N-(1-methylpiperidin-4-yl)quinolin-4-amine] | 9.2 ± 0.51 | 15.5 ± 0.53 | 12.4 ± 0.49
COc1cccc2nc(N3CCCN(C)CC3)cc(NC3CCOCC3)c12 [Compound 5l, 5-Methoxy-2-(4-methyl-1,4-diazepan-1-yl)-N-(tetrahydro-2H-pyran-4-yl)quinolin-4-amine] | 2.8 ± 0.21 | 15.5 ± 0.2 | 2.4 ± 0.49
COc1ccc(Nc2cc(N3CCCN(C)CC3)nc3cccc(OC)c23)cc1 [Compound 5m, 5-Methoxy-N-(4-methoxyphenyl)-2-(4-methyl-1,4-diazepan-1-yl)quinolin-4-amine] | 19.7 ± 2.56 | 18.9 ± 1.97 | > 20
